System: 6-OHDA lesioned rats (striatum)
Assay: Experiment 1 online microdialysis in anesthetized rats (baseline, NSD-1015, NSD+TMP)
Type: in vivo, rat
Procedure: The second microdialysis protocol in Experiment 1 (identical microdialysis methods and protocols were used in the pilot study) was performed in anaesthetized animals was performed in TH+DD-GCH1 treated animals that received oral TMP administration in their drinking water at least 2 weeks prior sampling; either 0.5 mg/ml (n=4) or 2 mg/ml (n=5) (same TMP emulsion that was administered to the animals followed with behavior tests). In addition, this experiment also included animals from the TH+GCH1 (n=3), Les-Sham (n=2) and intact control (n=3) groups. Probe placement was calculated to position the membrane of the probe in the center of the transduction area in striatum, which corresponded to the coordinates: AP: +0.5 mm; ML: −3.7 mm and DV: −5.7 mm with the tooth bar set to −2.4 mm. […] Samples were analyzed readily as described for the first microdialysis experiment. After the last sample was collected the animal was terminated and brain tissue taken for histology.

COc1cc(Cc2cnc(N)nc2N)cc(OC)c1OC [TMP, trimethoprim]
biochemical reconstitution with oral TMP (0.5 and 2.0 mg/ml TMP in drinking water, TH+DD-GCH1 treated rats): both were effective in reaching a similar biochemical reconstitution | DOPA levels after addition of TMP to the ringer solution (2E-5 M TMP lactate plus NSD-1015 via probe for 2 h, after 2 weeks oral TMP): did not further increase the DOPA levels

From patent US20170114346A1, “GENE EXPRESSION SYSTEM AND […]” (priority 2014, published 2017)
